Assay results: patent publication US7122668B2, “Platinum complexes and their use in therapy” (priority 2002, dated 2006)
Where two headings read alike, the source gives them in different places.

Columns and labels:
[1] = system: 41M; experiment: Microculture tetrazolium (MTS) cell survival assay; format: cell-based; conditions: 24 hours incubation
Description: (§1) Cytotoxicity of the synthesized complexes was also tested by the MTS method^(21). Accordingly, the compounds were incubated for 24 hours with the corresponding cell lines and the cell survival in compound-treated cultures was evaluated.
(§2) The complexes were incubated for 24 hours with the above mentioned cell lines and the cell survival in compound-treated cultures was evaluated by the (microculture tetrazolium) MTS method as previously reported.

[2] = system: CH1cisR; experiment: Microculture tetrazolium (MTS) cell survival assay; format: cell-based; conditions: for IC50: 24 hours incubation, MTS; for resistance factor (IC50 resistant/IC50 sensitive): CH1cisR/CH1
Description: as §1, §2

[3] = system: A2780cisR; experiment: Microculture tetrazolium (MTS) cell survival assay; format: cell-based; conditions: for IC50: 24 hours incubation, MTS; for resistance factor (IC50 resistant/IC50 sensitive): A2780cisR/A2780
Description: as §1, §2

[4] = system: CH1; experiment: Microculture tetrazolium (MTS) cell survival assay; format: cell-based; conditions: 24 hours incubation
Description: as §1, §2

[5] = system: A2780; experiment: Microculture tetrazolium (MTS) cell survival assay; format: cell-based; conditions: 24 hours incubation
Description: as §1, §2

[6] = system: 41McisR; experiment: Microculture tetrazolium (MTS) cell survival assay; format: cell-based; conditions: for resistance factor (IC50 resistant/IC50 sensitive): 41McisR/41M; for IC50: 24 hours incubation, MTS
Description: as §1, §2

[7] = system: calf thymus DNA; experiment: DNA binding (calf thymus DNA platination); conditions: for t1/2 half time of the binding to calf thymus DNA: 10 mM NaClO4, 37° C., ri = 0.08, differential pulse polarography; for ΔTm, 0.01M Na+ / ΔTm, 0.2 M / ΔΔεmax, maximum of the positive CD band at around 275 nm: rb = 0.05; for ΔΔεmax, maximum of the positive CD band at around 275 nm: difference between control and platinated DNA
Description: The formation of calf thymus DNA platination was also examined. To this end, calf thymus DNA was incubated with different compounds (Table 3) in which the following parameters were determined: […]

[8] = system: C-26 cells; format: cell-based; conditions: C-26 cells, mean ± SD
Description: (§3) A human ovarian carcinoma cell line (OV-1063), established at the Hadassah University hospital and human colon carcinoma cell line (C-26) were maintained in RPMI-1640 medium supplemented with 10% FCS, antibiotics and glutamine. All culture medium components were purchased from Biological Industries (Beit-HaEmek, Israel). Both cell lines were maintained at 37° C. in a water-jacketed CO2 incubator.
(§4) Cytotoxicity of the synthesized complexes was tested by the methylene blue (MB) staining assay^(19). A fixed number of exponentially growing cells in 200 μl medium were plated in 96-microwell, flat-bottomed plates. For each of the complexes tested, 4 well were used. Following 24 hr in culture, 20 μl of different concentration of the complexes were added to each well containing untreated cells. Normal saline was added to the controls. Cells were exposed to complexes for 4, 24, or 72 hr. At the end of exposure for a fixed time interval, the treated cells as well as parallel control cells were washed and incubation was continued in fresh medium until termination of the experiment. Following 72 hr of growth, cells were fixed by adding 50 μl of 2.5% of glutaraldehyde to each well for 15 min. Fixed cells were rinsed 10 times with fresh de-ionized water and once with borate buffer (0.1 M, pH=8.5), dried and stained with MB (100 μl of 1% solution in 0.1 M borate buffer, pH=8.5) for 1 hr at room temperature. Stained cells were rinsed thoroughly with de-ionized water to remove any non-cell-bound die and then dried. The MB bound to the fixed cells was extracted by incubation at 37° C. with 200 μl of 0.1N HCl for 1 hr, and the net optical density (OD) of the die in each well was determined by a plate spectrophotometer (Labsystems Multyskan BICHROMATIC, Finland) at 620 nm.

[9] = system: OV-1063 cells; experiment: Methylene blue (MB) assay of cell survival; format: cell-based, human; conditions: mean ± SD
Description: as §3, §4

[10] = listed as cis-[PtCl2(NH3)(pip)]
[11] = 4 h exposure, read-out: IC50, 4 h
[12] = 24 h exposure, read-out: IC50, 24 h
[13] = 72 h exposure, read-out: IC50, 72 h
[14] = listed as cis-[PtCl2(NH3)(pic)]

Compound	IC50 [1]	IC50 [2]	resistance factor (IC50 resistant/IC50 sensitive) [2]	IC50 [3]	resistance factor (IC50 resistant/IC50 sensitive) [3]	IC50 [4]	IC50 [5]	resistance factor (IC50 resistant/IC50 sensitive) [6]	IC50 [6]	t1/2 half time of the binding to calf thymus DNA [7]	also measured
C1CCNCC1.C1CCNCC1.[Cl][Pt][Cl] [cis-PtCl2(pip)2, reference compound]	50 ± 3 µM	280 ± 12 µM	(8)	250 ± 12 µM	(16.7)	32 ± 2 µM	15 ± 2 µM	6	300 ± 25 µM		
C1CNCCN1.C1CNCCN1.Cl.[Cl][Pt][Cl] [Complex 14, Trans-[PtCl2(piperazine)(piperazine)].HCl]	43 ± 3 µM	53 ± 3 µM	2.0	43 ± 3 µM	2.5	26 ± 2 µM	17 ± 3 µM	3.6	153 ± 10 µM		
C1CNCCN1.Cl.N.[Cl][Pt@SP1][Cl] [Complex 16, cis-[PtCl2(NH3)(piperazine)].HCl]	46 ± 3 µM	56 ± 3 µM	2.0	25 ± 2 µM	2.5	28 ± 2 µM	10 ± 1 µM	2.4	112 ± 12 µM	35 min	% IEC/adduct, frequency of interstrand crosslinks [7]: 6%; unwinding angle per adduct [7]: 13°; ΔTm, 0.01M Na+ [7]: 3.5 0.C; ΔTm, 0.2 M [7]: −4.5 0.C
trans-PtCl2(NH3)(4-pip)Cl2	27 ± 2 µM	94 ± 6 µM	(6.3)	20 ± 2 µM	4.0	15 ± 2 µM	5 ± 0.7 µM	5.5	150 ± 8 µM		
C1CCNCC1.C1CCNCC1.[Cl][Pt][Cl] [Complex 6, Trans-[PtCl2(piperidine)2]]											IC50 ([4]; listed as trans-PtCl2(pip)2): 35 ± 2 µM
Trans-[PtCl2(isopropylamine)(piperazine)].HCl [Complex 9]	38 ± 3 µM	50 ± 3 µM	5.0	30 ± 2 µM	2.1	10 ± 1 µM	14 ± 1 µM	3.2	122 ± 8 µM		
C1CCNCC1.N.[Cl][Pt][Cl] [Complex 7, cis-[PtCl2(NH3)(piperidine)]]	64 ± 5 µM	263 ± 17 µM	(7.3)	234 ± 17 µM	9	36 ± 4 µM	26 ± 3 µM	(4.9)	315 ± 24 µM	113 min	% IEC/adduct, frequency of interstrand crosslinks [7, 10]: 5%; unwinding angle per adduct [7, 10]: 13.2°; ΔTm, 0.01M Na+ [7, 10]: −2.5 0.C; ΔTm, 0.2 M [7, 10]: −6.0 0.C; ΔΔεmax, maximum of the positive CD band at around 275 nm [7, 10]: 0.93
C1CNCCN1.Cl.N.[Cl][Pt][Cl] [Complex 8, Trans-[PtCl2(NH3)(piperazine)].HCl]	52 ± 5 µM	34 ± 4 µM	2.8	44 ± 4 µM	8.8	12 ± 3 µM	5 ± 1 µM	3.0	155 ± 12 µM	20 min	% IEC/adduct, frequency of interstrand crosslinks [7]: 13%; unwinding angle per adduct [7]: 26.4°; ΔTm, 0.01M Na+ [7]: 6.3 0.C; ΔTm, 0.2 M [7]: −1.9 0.C; ΔΔεmax, maximum of the positive CD band at around 275 nm [7]: 0.01
Cc1ccncc1.N.[Cl][Pt][Cl] [trans-[PtCl2(NH3)(4-picoline)]] [reference compound]										50 min	IC50 [8, 11]: 12 ± 1.2 µM; IC50 [8, 12]: 11 ± 2 µM; IC50 [8, 13]: 11 ± 1.1 µM; % IEC/adduct, frequency of interstrand crosslinks [7]: 40%; unwinding angle per adduct [7]: 39.6°; ΔTm, 0.01M Na+ [7]: +7.2 0.C; ΔTm, 0.2 M [7]: +0.6 0.C; ΔΔεmax, maximum of the positive CD band at around 275 nm [7]: −0.29; IC50 [9, 11]: 18 ± 3.7 µM; IC50 [9, 12]: 16 ± 3.5 µM; IC50 [9, 13]: 14 ± 2.3 µM
Trans-[PtCl2(n-butylamine)(piperazine)].HCl [Complex 10]	32 ± 5 µM	19 ± 3 µM	1.1	28 ± 2 µM	1.8	17 ± 2 µM	16 ± 2 µM	1.5	48 ± 3 µM		
Trans-[PtCl2(piperidine)(piperazine)].HCl [Complex 12]	37 ± 4 µM	85 ± 7 µM	3.9	64 ± 5 µM	3.6	22 ± 3 µM	18 ± 2 µM	3.2	118 ± 9 µM		
Cc1ccncc1.N.[Cl][Pt][Cl] [cis-[PtCl2(NH3)(4-picoline)]] [reference compound]											IC50 [8, 11]: 5.1 ± 1.2 µM; IC50 [8, 12]: 4.7 ± 2.4 µM; IC50 [8, 13]: 3.7 ± 1.6 µM; t1/2 half time of the binding to calf thymus DNA [7, 14]: 21 min; % IEC/adduct, frequency of interstrand crosslinks [7, 14]: 4%; unwinding angle per adduct [7, 14]: 12°; ΔTm, 0.01M Na+ [7, 14]: +1.6 0.C; ΔTm, 0.2 M [7, 14]: −4.8 0.C; ΔΔεmax, maximum of the positive CD band at around 275 nm [7, 14]: 0.92; IC50 [9, 11]: 6 ± 2.2 µM; IC50 [9, 12]: 5.1 ± 1.9 µM; IC50 [9, 13]: 4 ± 1.7 µM
